# Laboratory results published in patent US20070196848A1, “DETECTION OF PHOSPHORYLATED eIF2-alpha AS A DIAGNOSTIC TEST FOR EFFICACY AND SENSITIVITY OF TRANSLATION INITIATION INHIBITORS IN THE TREATMENT OF CANCER AND OTHER PROLIFERATIVE DISEASES” (priority 2004, published 2007).
# Legend:
# 5′ UTR of BRCA1 mRNA = test: firefly luciferase reporter with 5′ UTR of BRCA1 mRNAa or mRNAb in MCF-7 cells; type: cell-based, human; conditions: renilla luciferase internal control
# Text: (§1) FIGS. 4A-4C depict dose-dependent up-regulation of BRCA1 in MCF-7 breast cancer cells by EPA (A) and CLT (B). Upper bands, BRCA1; lower bands, actin.
# (§2) MCF-7 breast cancer cells, known to have very low levels of BRCA1 protein, were exposed to CLT and EPA. […] To confirm that up-regulation of BRCA1 was at the level of translation, the 5′ UTRs of either BRCA1 mRNAa or mRNAb were placed in front of the firefly luciferase reporter gene using in both cases renilla luciferase as an internal control. These constructs were transfected into MCF-7 breast cancer cells. […] Without intending to be bound by theory, these experiments indicate that the inhibitors of translation initiation that induce phosphorylation of eIF2α restrict the availability of the ternary complex to translationally up-regulate the tumor suppressor gene BRCA1, a critical player in many types of sporadic breast and ovarian cancers.
# BRCA1 = BRCA1 expression in MCF-7 breast cancer cells; type: cell-based, human; conditions: MCF-7 cells, dose-dependent
# Text: as §1, §2
# [1] = tested on: PC-3 human prostate tumors; test: orthotopic xenograft model of human prostate cancer, survival; type: in vivo, mouse; conditions: PC-3 orthotopic, gavage 2.5 grams/kilogram/day
# Text: FIGS. 14A-14F depict the effect of EPA on xenograft cancer models. (A) EPA increased the mean survival time in an orthotopic model of PC-3 human prostate tumors (left, corn oil; right, EPA). (B) EPA reduced tumor growth in an orthotopic syngenic model of KLN mouse squamous cell carcinoma (5 weeks) (left, corn oil; right, EPA). (C) EPA induced phosphorylation of eIF2α in the KLN tumors (left, corn oil; middle, EPA1;
# Human PC-3 prostate cancer cells stably transfected with the GFP fluorescent marker were implanted into mouse prostate glands and tumors were allowed to establish. Mice with tumors detectable by whole body fluorescent scanning were treated with EPA or corn oil, orally administered by gavage (2.5 grams/kilogram/day).
# Hep-G2 = test: sulfarodamine B cell growth assay (SRB); type: cell-based; conditions: Homo sapiens, HepG2; Hep-G2, Liver
# Text: (§3) The effect of EPA on the proliferation of a panel of cancer cell lines representative of most common human cancers was studied using the sulfarodamine B cell growth assay (SRB). EPA inhibited the proliferation of all cancer cell lines tested, including androgen dependent and androgen independent prostate cancer cell lines (LNCaP, PC-3 and DU-145) in a dose dependent manner (Table 1: effect of EPA on human cancer cello growth).
# A549 = test: sulfarodamine B cell growth assay (SRB); type: cell-based; conditions: Homo sapiens; A549, Lung
# Text: as §3
# MCF-7 = test: sulfarodamine B cell growth assay (SRB); type: cell-based; conditions: Homo sapiens, MCF7; MCF-7, Breast
# Text: as §3
# SK-OV3 = test: sulfarodamine B cell growth assay (SRB); type: cell-based; conditions: Homo sapiens, SK-OV-3; SK-OV3, Ovary
# Text: as §3
# HCT-15 = test: sulfarodamine B cell growth assay (SRB); type: cell-based; conditions: Homo sapiens; HCT-15, Colon
# Text: as §3
# DU-145 = test: sulfarodamine B cell growth assay (SRB); type: cell-based; conditions: Homo sapiens; DU-145, Prostate
# Text: as §3
# PC-3 = test: sulfarodamine B cell growth assay (SRB); type: cell-based; conditions: Homo sapiens; PC-3, Prostate
# Text: as §3
# MDAMB231 = test: sulfarodamine B cell growth assay (SRB); type: cell-based; conditions: Homo sapiens, MDA-MB-231; MDAMB231, Breast
# Text: as §3
# MMRU = test: sulfarodamine B cell growth assay (SRB); type: cell-based; conditions: Homo sapiens, Skin
# Text: as §3
# HeLa = test: sulfarodamine B cell growth assay (SRB); type: cell-based; conditions: Homo sapiens, Cervix
# Text: as §3
# Caski-1 = test: sulfarodamine B cell growth assay (SRB); type: cell-based; conditions: Homo sapiens; Caski-1, Cervix
# Text: as §3
# U-118 MG = test: sulfarodamine B cell growth assay (SRB); type: cell-based; conditions: Homo sapiens, Glioblastoma
# Text: as §3
# HT-29 = test: sulfarodamine B cell growth assay (SRB); type: cell-based; conditions: Homo sapiens; HT-29, Colon
# Text: as §3
# ACHN = test: sulfarodamine B cell growth assay (SRB); type: cell-based; conditions: Homo sapiens, Kidney
# Text: as §3
# LNCaP = test: sulfarodamine B cell growth assay (SRB); type: cell-based; conditions: Homo sapiens, Prostate
# Text: as §3
# SK-Mel-28 = test: sulfarodamine B cell growth assay (SRB); type: cell-based; conditions: Homo sapiens; SK-Mel-28, Skin
# Text: as §3
# eIF2α phosphorylation = test: immunoblot with anti-S51-P-eIF2α-specific antibody in DU-145 cells; type: cell-based, human; conditions: two hours
# Method: To investigate whether depletion of Ca^++ stores by EPA causes activation of eIF2α kinases and phosphorylation of eIF2α in prostate cancer cells, DU-145 cells were incubated with or without increasing concentrations of EPA for two hours.
# p53^−/− mice = tested on: p53^−/− mice
# Text: p53 is the most commonly mutated gene in human cancers. The anti-cancer activity of EPA was investigated in p53^−/− mice, which develop a wide variety of spontaneous tumors with 100% penetrance and die from cancer within 50 weeks of age. Age and sex matched animals were randomly distributed to treatment (2.5 grams/kilogram EPA) or control (2.5 grams/kilogram corn oil) administered daily by gavage.
# [2] = tested on: DU-145 cells transfected with eIF2αWT; test: cell cycle distribution of GFP expressing cells by FACS; type: cell-based, human; conditions: WT, GFP-expressing DU-145 cells
# Method: (§4) FIG. 10 depicts cell cycle inhibition by EPA that is dependent on eIF2α phosphorylation. DU-145 human prostate cancer cell lines were transiently transfected with eIF2α-51A-GFP or eIF2α-WT-GFP plasmids, treated with EPA or vehicle, stained with propidium iodide and cell cycle distribution of GFP transfected cells was determined.
# (§5) eIF2α51A is a […] non-phosphorylatable mutant of eIF2α in which serine 51 has been replaced by alanine (FIG. 9). To confirm that eIF2α phosphorylation is also critical for EPA-mediated inhibition of cell proliferation in prostate cancer cells, DU-145 cells were transiently transfected with a construct that co-expresses the fluorescent marker GFP with either eIF2αWT (i.e., eIF2α wild-type) or eIF2α51A. These cells were treated with either EPA or vehicle DMSO, and the cell cycle distribution of GFP expressing cells was determined by FACS analysis.
# [3] = tested on: DU-145 cells transfected with eIF2α51A; test: as above; type: cell-based, human; conditions: 51A, GFP-expressing DU-145 cells
# Method: as §4, §5
# HTB-174 = test: sulfarodamine B cell growth assay (SRB); type: cell-based; conditions: Homo sapiens; HTB-174, Lung
# Text: The effect of EPA on the proliferation of a panel of cancer cell lines representative of most common human cancers was studied using the sulfarodamine B cell growth assay (SRB).
structure (smiles),measurement,setting,value
"Clc1ccccc1C(c1ccccc1)(c1ccccc1)n1ccnc1 [CLT, clotrimazole]",translation of reporter fused to 5′ UTR of BRCA1 mRNAb,5′ UTR of BRCA1 mRNA,significantly up-regulated translation
same,up-regulation of BRCA1,BRCA1,significant up-regulation of BRCA1
"CC/C=C\C/C=C\C/C=C\C/C=C\C/C=C\CCCC(=O)O [EPA, eicosapentaenoic acid]",longer mean survival time than corn oil,[1],50%
same,mean survival time,[1],38 ± 5 days
same,IC50,Hep-G2,24 µM
same,IC50,A549,54 µM
same,IC50,MCF-7,43 µM
same,IC50,SK-OV3,96 µM
same,IC50,HCT-15,47 µM
same,IC50,DU-145,36 µM
same,IC50,PC-3,20 µM
same,IC50,MDAMB231,37 µM
same,IC50,MMRU,36 µM
same,IC50,HeLa,10 µM
same,IC50,Caski-1,76 µM
same,IC50,U-118 MG,36 µM
same,IC50,HT-29,72 µM
same,IC50,ACHN,62 µM
same,IC50,LNCaP,18 µM
same,IC50,SK-Mel-28,46 µM
same,increase in eIF2α phosphorylation,eIF2α phosphorylation,approximately 10 fold
same,sign of toxicity,"p53^−/− mice; mouse, in vivo",Neither control nor EPA treated animals showed any sign of toxicity
same,mean survival time (Kaplan-Meier),p53^−/− mice; oral 2.5 grams/kilogram/day from four weeks of age,385 ± 12 days
same,% G1,[2],67%
same,% G2/M,[2],14%
same,% S,[2],19%
same,% G1,[3],48%
same,% G2/M,[3],21%
same,% S,[3],31%
same,IC50,HTB-174,79 µM
